Test results taken from paper doi:10.1101/2020.07.01.182642v1 (biorxiv, 2020).

What was measured:
Conditions in all cases: binder
PIM1 = PIM1 (Homo sapiens, UniProt P11309)
DYRK1A = DYRK1A (Homo sapiens, UniProt Q13627)
BMPR2 = BMPR2 (Homo sapiens, UniProt Q13873)
BMPR1A = BMPR1A (Homo sapiens, UniProt P36894)
PRKG2 = PRKG2 (Homo sapiens, UniProt Q13237)
PAK1 = PAK1 (Homo sapiens, UniProt Q13153)
CAMK2D = CAMK2D (Homo sapiens, UniProt Q13557)
CAMK4 = CAMK4 (Homo sapiens, UniProt Q16566)
TYK2 = TYK2 (Homo sapiens, UniProt P29597)
ADRBK2 = ADRBK2 (Homo sapiens, UniProt P35626)
PRKACA = PRKACA (Homo sapiens, UniProt P17612)
SRPK1 = SRPK1 (Homo sapiens, UniProt Q96SB4)
SRPK1, sequence (Q96SB4 whole entry): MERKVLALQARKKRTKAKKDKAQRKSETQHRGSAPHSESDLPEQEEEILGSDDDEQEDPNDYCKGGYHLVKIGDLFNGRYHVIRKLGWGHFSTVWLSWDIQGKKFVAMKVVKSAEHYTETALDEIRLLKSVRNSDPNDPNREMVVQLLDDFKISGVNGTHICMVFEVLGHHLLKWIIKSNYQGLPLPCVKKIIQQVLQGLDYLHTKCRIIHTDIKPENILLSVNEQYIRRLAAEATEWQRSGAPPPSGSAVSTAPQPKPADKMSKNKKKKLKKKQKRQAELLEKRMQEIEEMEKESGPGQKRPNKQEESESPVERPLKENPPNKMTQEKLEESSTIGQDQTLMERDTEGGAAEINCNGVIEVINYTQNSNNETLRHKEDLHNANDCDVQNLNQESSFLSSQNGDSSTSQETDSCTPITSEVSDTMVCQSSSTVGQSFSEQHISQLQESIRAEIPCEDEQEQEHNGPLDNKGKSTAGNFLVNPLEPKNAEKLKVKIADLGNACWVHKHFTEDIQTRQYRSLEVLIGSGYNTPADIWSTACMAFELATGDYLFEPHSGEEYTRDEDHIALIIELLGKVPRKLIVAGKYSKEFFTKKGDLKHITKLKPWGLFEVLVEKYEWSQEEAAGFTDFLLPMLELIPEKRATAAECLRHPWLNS

VRK3 = VRK3 (Homo sapiens, UniProt Q8IV63)
VRK3, sequence (Q8IV63 whole entry): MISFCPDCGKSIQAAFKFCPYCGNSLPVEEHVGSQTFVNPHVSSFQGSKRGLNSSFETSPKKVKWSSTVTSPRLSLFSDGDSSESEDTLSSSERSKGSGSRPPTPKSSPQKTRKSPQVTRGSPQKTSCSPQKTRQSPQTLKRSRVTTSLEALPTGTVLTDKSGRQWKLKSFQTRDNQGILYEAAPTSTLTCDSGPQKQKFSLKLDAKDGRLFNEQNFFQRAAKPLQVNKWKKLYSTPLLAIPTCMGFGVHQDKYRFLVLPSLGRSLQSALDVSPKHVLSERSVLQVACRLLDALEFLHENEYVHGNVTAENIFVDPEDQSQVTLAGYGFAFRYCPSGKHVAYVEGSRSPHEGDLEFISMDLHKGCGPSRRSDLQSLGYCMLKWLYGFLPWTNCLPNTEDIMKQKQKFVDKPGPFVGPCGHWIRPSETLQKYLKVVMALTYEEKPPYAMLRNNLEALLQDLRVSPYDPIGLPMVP

STK40 = STK40 (Homo sapiens, UniProt Q8N2I9)
CAMK2G = CAMK2G (Homo sapiens, UniProt Q13555)
CAMK2G, sequence (Q13555 whole entry): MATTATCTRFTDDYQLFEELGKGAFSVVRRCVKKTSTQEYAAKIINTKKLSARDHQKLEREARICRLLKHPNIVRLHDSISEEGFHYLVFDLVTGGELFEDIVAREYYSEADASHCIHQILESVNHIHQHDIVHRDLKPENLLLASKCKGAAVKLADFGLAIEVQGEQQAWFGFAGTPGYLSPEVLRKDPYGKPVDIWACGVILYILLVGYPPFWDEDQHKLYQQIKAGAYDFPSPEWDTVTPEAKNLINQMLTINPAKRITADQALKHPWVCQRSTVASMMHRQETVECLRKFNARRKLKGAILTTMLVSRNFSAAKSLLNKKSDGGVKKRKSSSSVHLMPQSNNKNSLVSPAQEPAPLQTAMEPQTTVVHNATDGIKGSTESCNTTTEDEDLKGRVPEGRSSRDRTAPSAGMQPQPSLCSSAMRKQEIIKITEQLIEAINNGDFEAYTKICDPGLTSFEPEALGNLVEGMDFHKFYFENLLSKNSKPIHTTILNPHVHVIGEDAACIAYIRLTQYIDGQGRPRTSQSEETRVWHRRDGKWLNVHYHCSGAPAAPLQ

SIK1 = SIK1 (Homo sapiens, UniProt P57059)
PRKCZ = PRKCZ (Homo sapiens, UniProt Q05513)
PRKCZ, sequence (Q05513 whole entry): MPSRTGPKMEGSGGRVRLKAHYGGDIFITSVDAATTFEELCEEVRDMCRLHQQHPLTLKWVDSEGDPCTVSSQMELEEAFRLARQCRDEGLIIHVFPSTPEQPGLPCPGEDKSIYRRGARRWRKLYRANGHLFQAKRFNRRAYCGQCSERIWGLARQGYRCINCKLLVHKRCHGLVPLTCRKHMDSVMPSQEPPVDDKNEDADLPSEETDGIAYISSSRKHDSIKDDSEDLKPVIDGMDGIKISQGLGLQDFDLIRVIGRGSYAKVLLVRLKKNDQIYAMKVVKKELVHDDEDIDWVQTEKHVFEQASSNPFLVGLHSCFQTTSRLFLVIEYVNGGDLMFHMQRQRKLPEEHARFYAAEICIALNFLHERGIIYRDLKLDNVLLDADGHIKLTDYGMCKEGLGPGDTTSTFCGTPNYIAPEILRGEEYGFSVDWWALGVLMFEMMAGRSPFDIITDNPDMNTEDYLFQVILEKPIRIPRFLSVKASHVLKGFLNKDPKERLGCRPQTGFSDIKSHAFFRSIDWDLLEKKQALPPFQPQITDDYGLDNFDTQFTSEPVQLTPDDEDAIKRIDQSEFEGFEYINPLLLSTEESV

SgK223 = SgK223 (Homo sapiens, UniProt Q86YV5)

PIM1, sequence (P11309 whole entry): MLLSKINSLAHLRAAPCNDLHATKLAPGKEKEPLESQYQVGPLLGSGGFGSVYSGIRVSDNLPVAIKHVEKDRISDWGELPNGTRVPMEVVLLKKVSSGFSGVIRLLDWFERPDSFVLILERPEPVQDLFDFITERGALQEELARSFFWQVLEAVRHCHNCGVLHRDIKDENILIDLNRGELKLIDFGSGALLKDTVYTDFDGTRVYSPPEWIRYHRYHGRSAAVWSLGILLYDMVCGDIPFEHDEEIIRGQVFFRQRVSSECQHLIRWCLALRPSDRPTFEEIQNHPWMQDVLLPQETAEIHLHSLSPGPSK
CAMK2D, sequence (Q13557 whole entry): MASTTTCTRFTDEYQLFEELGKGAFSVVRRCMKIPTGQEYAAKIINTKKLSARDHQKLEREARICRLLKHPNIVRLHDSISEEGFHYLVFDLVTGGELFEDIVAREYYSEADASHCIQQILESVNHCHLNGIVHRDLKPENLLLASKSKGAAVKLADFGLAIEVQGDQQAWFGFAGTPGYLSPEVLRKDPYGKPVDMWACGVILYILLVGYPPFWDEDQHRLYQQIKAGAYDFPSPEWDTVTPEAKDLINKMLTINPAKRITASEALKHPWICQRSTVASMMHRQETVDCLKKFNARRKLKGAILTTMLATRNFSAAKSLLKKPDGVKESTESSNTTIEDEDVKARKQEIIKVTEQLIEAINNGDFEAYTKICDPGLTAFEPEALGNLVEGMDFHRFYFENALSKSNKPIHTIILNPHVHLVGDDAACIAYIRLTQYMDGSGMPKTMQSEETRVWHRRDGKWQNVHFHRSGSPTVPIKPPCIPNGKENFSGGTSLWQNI
BMPR2, sequence (Q13873 whole entry): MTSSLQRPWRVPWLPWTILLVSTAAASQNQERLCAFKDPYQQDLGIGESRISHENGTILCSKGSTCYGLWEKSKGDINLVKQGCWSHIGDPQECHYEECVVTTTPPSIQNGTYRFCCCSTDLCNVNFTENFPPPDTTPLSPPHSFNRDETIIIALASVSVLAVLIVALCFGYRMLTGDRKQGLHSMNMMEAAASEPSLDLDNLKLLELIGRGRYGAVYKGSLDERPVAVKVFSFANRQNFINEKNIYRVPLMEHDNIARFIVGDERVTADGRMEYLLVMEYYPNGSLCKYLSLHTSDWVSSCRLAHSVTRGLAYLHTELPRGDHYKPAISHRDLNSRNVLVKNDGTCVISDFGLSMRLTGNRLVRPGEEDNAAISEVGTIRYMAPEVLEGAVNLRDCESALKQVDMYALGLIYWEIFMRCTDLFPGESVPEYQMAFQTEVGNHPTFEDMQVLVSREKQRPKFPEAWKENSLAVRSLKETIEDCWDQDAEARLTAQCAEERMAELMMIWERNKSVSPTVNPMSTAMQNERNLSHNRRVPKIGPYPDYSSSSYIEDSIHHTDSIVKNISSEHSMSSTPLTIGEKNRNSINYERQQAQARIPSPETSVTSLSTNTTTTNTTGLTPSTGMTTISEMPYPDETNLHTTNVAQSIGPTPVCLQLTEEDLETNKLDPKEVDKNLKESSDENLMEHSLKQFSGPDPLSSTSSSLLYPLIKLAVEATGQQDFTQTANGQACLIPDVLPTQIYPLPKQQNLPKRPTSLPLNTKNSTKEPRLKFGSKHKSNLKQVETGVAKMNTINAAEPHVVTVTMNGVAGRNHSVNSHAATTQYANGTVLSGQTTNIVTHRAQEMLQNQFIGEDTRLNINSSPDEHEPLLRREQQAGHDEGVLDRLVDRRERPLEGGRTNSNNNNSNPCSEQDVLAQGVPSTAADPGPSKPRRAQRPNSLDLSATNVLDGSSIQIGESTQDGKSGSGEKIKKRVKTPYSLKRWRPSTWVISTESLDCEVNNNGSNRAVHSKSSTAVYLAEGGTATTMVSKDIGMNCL
BMPR1A, sequence (P36894 whole entry): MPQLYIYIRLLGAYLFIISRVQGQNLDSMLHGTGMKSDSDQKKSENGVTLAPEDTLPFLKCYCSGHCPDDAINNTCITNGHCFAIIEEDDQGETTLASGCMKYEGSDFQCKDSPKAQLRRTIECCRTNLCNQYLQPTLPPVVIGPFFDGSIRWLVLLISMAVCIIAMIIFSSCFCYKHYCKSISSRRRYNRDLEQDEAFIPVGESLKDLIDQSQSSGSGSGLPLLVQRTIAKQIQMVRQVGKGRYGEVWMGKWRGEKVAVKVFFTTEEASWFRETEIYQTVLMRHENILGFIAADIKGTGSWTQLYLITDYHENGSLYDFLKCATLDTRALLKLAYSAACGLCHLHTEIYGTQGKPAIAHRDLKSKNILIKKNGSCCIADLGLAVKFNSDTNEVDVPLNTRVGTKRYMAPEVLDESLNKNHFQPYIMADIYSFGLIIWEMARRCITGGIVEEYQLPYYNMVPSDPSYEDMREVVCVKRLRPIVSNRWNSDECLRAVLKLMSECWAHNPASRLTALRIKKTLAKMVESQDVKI

CC(=O)c1cccc(-c2cnc3ccc(NCC4CC4)nn23)c1 [compound 1, K00135]
ΔTm inhibitor 1 (PIM1): 6.3 °C
ΔTm inhibitor 1 (DYRK1A): 3.6 °C
ΔTm inhibitor 1 (BMPR2): 7.8 °C
ΔTm inhibitor 1 (BMPR1A): 10.9 °C

CCN1/C(=C/C(C)=O)Sc2ccc(OC)cc21 [compound 2, TG003]
ΔTm inhibitor 2 (PRKG2): -0.1 °C
ΔTm inhibitor 2 (PAK1): 0.0 °C
ΔTm inhibitor 2 (CAMK2D): -0.6 °C
ΔTm inhibitor 2 (CAMK4): -0.2 °C
ΔTm inhibitor 2 (TYK2): 0.6 °C
ΔTm inhibitor 2 (ADRBK2): -0.2 °C
ΔTm inhibitor 2 (PRKACA): -0.2 °C
ΔTm inhibitor 2 (SRPK1): 0.0 °C
ΔTm inhibitor 2 (VRK3): 0.5 °C
ΔTm inhibitor 2 (STK40): 0.0 °C
ΔTm inhibitor 2 (CAMK2G): 0.1 °C
ΔTm inhibitor 2 (SIK1): 1.5 °C
ΔTm inhibitor 2 (PRKCZ): -0.2 °C

Nc1nccc(-c2ccc3noc(-c4ccc(Cl)cc4)c3c2)n1 [compound 4, K00972]
ΔTm inhibitor 4 (SgK223): 0.4 °C
